Test results reported in PubChem BioAssay AID1963844 (Molecular Pharmacology Branch, DTP, NCI, 2024).

System: 422866-222-R5-J1-PDC complex spheroid viability
Assay: Anticancer human tumor 422866-222-R5-J1-PDC patient-derived pancreatic adenocarcinoma cell line growth inhibition [POLQ]
Details: for IC50: curve of first compound; for viability, T/C: stronger effect = lower value
Method in brief: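 PDC + HUVEC + MSC complex spheroids; POLQ inhibitors ± partner drugs; top conc. at/near clinical Cmax, else 10 microM (SN-38 1 microM), half-log dilutions; 37 degrees C, 5% CO2.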
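Also: spheroids exposed to compounds for one week before readout.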
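For viability, T/C in this document: percent of DMSO vehicle wells luminescence so 100% = untreated viability.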

Molecule CC(=O)O[C@H]1C(=O)[C@@]2(C)[C@H]([C@H](OC(=O)c3ccccc3)[C@]3(O)C[C@H](OC(=O)[C@H](O)[C@@H](NC(=O)c4ccccc4)c4ccccc4)C(C)=C1C3(C)C)[C@]1(OC(C)=O)CO[C@@H]1C[C@@H]2O + Nc1ccc(C#CCN(C(=O)Cc2ncc(C(F)(F)F)cc2C(F)(F)F)c2ccc(F)cc2)nn1 has an IC50 (second compound 0.0316 µM) greater than 3000 nM, an IC50 (second compound 0.1 µM) greater than 3000 nM and an IC50 (second compound 0.316 µM) of less than 9.49 nM. The IC50 (second compound 1 µM) was greater than 3000 nM, the IC50 (second compound 3.16 µM) was less than 9.49 nM and the IC50 (second compound 10 µM) was greater than 3000 nM. For the same molecule, the viability, T/C (second compound 0.0316 µM, first compound 0.00949 µM) was 60.5%, the viability, T/C (second compound 0.0316 µM, first compound 0.03 µM) was 56% and the viability, T/C (second compound 0.0316 µM, first compound 0.0949 µM) was 48.5%. The viability, T/C (second compound 0.0316 µM, first compound 0.3 µM) was 51.8%, the viability, T/C (second compound 0.0316 µM, first compound 0.949 µM) was 61.9% and the viability, T/C (second compound 0.0316 µM, first compound 3 µM) was 63.6%. The viability, T/C (second compound 0.1 µM, first compound 0.00949 µM) was 56.8%, the viability, T/C (second compound 0.1 µM, first compound 0.03 µM) was 58.3% and the viability, T/C (second compound 0.1 µM, first compound 0.0949 µM) was 53.6%. The viability, T/C (second compound 0.1 µM, first compound 0.3 µM) was 46.4%, the viability, T/C (second compound 0.1 µM, first compound 0.949 µM) was 53% and the viability, T/C (second compound 0.1 µM, first compound 3 µM) was 65.4%. For the same molecule, the viability, T/C (second compound 0.316 µM, first compound 0.00949 µM) was 53.3%, the viability, T/C (second compound 0.316 µM, first compound 0.03 µM) was 43.9% and the viability, T/C (second compound 0.316 µM, first compound 0.0949 µM) was 51.4%. The viability, T/C (second compound 0.316 µM, first compound 0.3 µM) was 53.4%, the viability, T/C (second compound 0.316 µM, first compound 0.949 µM) was 57% and the viability, T/C (second compound 0.316 µM, first compound 3 µM) was 69.5%. For the same molecule, the viability, T/C (second compound 1 µM, first compound 0.00949 µM) was 59.8%, the viability, T/C (second compound 1 µM, first compound 0.03 µM) was 46.4% and the viability, T/C (second compound 1 µM, first compound 0.0949 µM) was 50.6%. For the same molecule, the viability, T/C (second compound 1 µM, first compound 0.3 µM) was 51.9%, the viability, T/C (second compound 1 µM, first compound 0.949 µM) was 56.8% and the viability, T/C (second compound 1 µM, first compound 3 µM) was 65.7%. The viability, T/C (second compound 3.16 µM, first compound 0.00949 µM) was 56.1%, the viability, T/C (second compound 3.16 µM, first compound 0.03 µM) was 46.7% and the viability, T/C (second compound 3.16 µM, first compound 0.0949 µM) was 46.4%. For the same molecule, the viability, T/C (second compound 3.16 µM, first compound 0.3 µM) was 47.8%, the viability, T/C (second compound 3.16 µM, first compound 0.949 µM) was 74.8% and the viability, T/C (second compound 3.16 µM, first compound 3 µM) was 66.1%. It also gave a viability, T/C (second compound 10 µM, first compound 0.00949 µM) of 55.3%, a viability, T/C (second compound 10 µM, first compound 0.03 µM) of 55.8% and a viability, T/C (second compound 10 µM, first compound 0.0949 µM) of 54%. It also gave a viability, T/C (second compound 10 µM, first compound 0.3 µM) of 65.8%, a viability, T/C (second compound 10 µM, first compound 0.949 µM) of 52.6% and a viability, T/C (second compound 10 µM, first compound 3 µM) of 75%.
Molecule COc1cc(C2c3cc4c(cc3C(OC3OC5COC(C)OC5C(O)C3O)C3COC(=O)C23)OCO4)cc(OC)c1O (centres undefined) + Nc1ccc(C#CCN(C(=O)Cc2ncc(C(F)(F)F)cc2C(F)(F)F)c2ccc(F)cc2)nn1 has an IC50 (second compound 0.0316 µM) of 779 nM, an IC50 (second compound 0.1 µM) of 906 nM and an IC50 (second compound 0.316 µM) of 555 nM. For the same molecule, the IC50 (second compound 1 µM) was 640 nM, the IC50 (second compound 3.16 µM) was 367 nM and the IC50 (second compound 10 µM) was 534 nM. It also gave a viability, T/C (second compound 0.0316 µM, first compound 0.0316 µM) of 90.9%, a viability, T/C (second compound 0.0316 µM, first compound 0.1 µM) of 97.1% and a viability, T/C (second compound 0.0316 µM, first compound 0.316 µM) of 62.7%. It also gave a viability, T/C (second compound 0.0316 µM, first compound 1 µM) of 49.6%, a viability, T/C (second compound 0.0316 µM, first compound 3.16 µM) of 33.5% and a viability, T/C (second compound 0.0316 µM, first compound 10 µM) of 30.6%. The viability, T/C (second compound 0.1 µM, first compound 0.0316 µM) was 110%, the viability, T/C (second compound 0.1 µM, first compound 0.1 µM) was 90.1% and the viability, T/C (second compound 0.1 µM, first compound 0.316 µM) was 76.2%. It also gave a viability, T/C (second compound 0.1 µM, first compound 1 µM) of 46.4%, a viability, T/C (second compound 0.1 µM, first compound 3.16 µM) of 31.2% and a viability, T/C (second compound 0.1 µM, first compound 10 µM) of 28.8%. It also gave a viability, T/C (second compound 0.316 µM, first compound 0.0316 µM) of 123%, a viability, T/C (second compound 0.316 µM, first compound 0.1 µM) of 92.1% and a viability, T/C (second compound 0.316 µM, first compound 0.316 µM) of 55.5%. It also gave a viability, T/C (second compound 0.316 µM, first compound 1 µM) of 47.1%, a viability, T/C (second compound 0.316 µM, first compound 3.16 µM) of 29.2% and a viability, T/C (second compound 0.316 µM, first compound 10 µM) of 36.9%. It also gave a viability, T/C (second compound 1 µM, first compound 0.0316 µM) of 94.3%, a viability, T/C (second compound 1 µM, first compound 0.1 µM) of 100% and a viability, T/C (second compound 1 µM, first compound 0.316 µM) of 68.5%. For the same molecule, the viability, T/C (second compound 1 µM, first compound 1 µM) was 40.6%, the viability, T/C (second compound 1 µM, first compound 3.16 µM) was 32.1% and the viability, T/C (second compound 1 µM, first compound 10 µM) was 35.5%. For the same molecule, the viability, T/C (second compound 3.16 µM, first compound 0.0316 µM) was 93.3%, the viability, T/C (second compound 3.16 µM, first compound 0.1 µM) was 81.4% and the viability, T/C (second compound 3.16 µM, first compound 0.316 µM) was 48.2%. It also gave a viability, T/C (second compound 3.16 µM, first compound 1 µM) of 47.1%, a viability, T/C (second compound 3.16 µM, first compound 3.16 µM) of 37.6% and a viability, T/C (second compound 3.16 µM, first compound 10 µM) of 31.6%. For the same molecule, the viability, T/C (second compound 10 µM, first compound 0.0316 µM) was 103%, the viability, T/C (second compound 10 µM, first compound 0.1 µM) was 88.9% and the viability, T/C (second compound 10 µM, first compound 0.316 µM) was 55.4%. The viability, T/C (second compound 10 µM, first compound 1 µM) was 43.6%, the viability, T/C (second compound 10 µM, first compound 3.16 µM) was 38.4% and the viability, T/C (second compound 10 µM, first compound 10 µM) was 31.6%.
